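Where inhibition never reached the appropriate level, the endpoint shown equals the highest concentration tested. Otherwise, values were interpolated linearly from a five-concentration, 48-hour dose response in 96-well plates. Abbreviation: GI50, concentration required for 50% inhibition of growth.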 Activity calls are given as the source filed them. No stated cut-off is given here; in the data, active = GI50 up to about 1.1 µM and inactive = higher.
Tests used:
Assay in all cases: NCI anticancer screen, dose series, 48 h
[1] = tested on: A498
[2] = tested on: K562
[3] = tested on: UACC-257
[4] = tested on: NCI/ADR-RES
[5] = tested on: SF-539
[6] = tested on: SN12C
[7] = tested on: SK-MEL-5
[8] = tested on: MOLT-4
[9] = tested on: KM12
[10] = tested on: RXF 393
[11] = tested on: U-251
[12] = tested on: HL-60
[13] = tested on: UACC-62
[14] = tested on: SNB-75
[15] = tested on: NCI-H460
[16] = tested on: SNB-19
[17] = tested on: HOP-92
[18] = tested on: ACHN
[19] = tested on: DU-145
[20] = tested on: 786-0

Measured: GI50

O=[N+]([O-])c1cc(C(F)(F)F)cc2c1SC1=Nc3ccccc3CN12
inactive: [1] > 100 µM | [2] > 100 µM | [3] > 100 µM | [4] > 100 µM | [5] > 100 µM | [6] > 100 µM | [7] > 100 µM | [8] > 100 µM | [9] > 100 µM | [10] > 100 µM | [11] > 100 µM | [12] > 100 µM | [13] > 100 µM | [14] > 100 µM | [15] > 100 µM | [16] > 100 µM | [17] > 100 µM

CC[C@@H]1ON(C)[C@H]2CN(C)C(=O)[C@@H]12
inactive: [2] > 100 µM | [3] > 100 µM | [4] > 100 µM | [6] > 100 µM | [7] > 100 µM | [8] > 100 µM | [11] > 100 µM | [18] > 100 µM | [12] > 100 µM | [19] > 100 µM | [15] > 100 µM | [16] > 100 µM | [17] > 100 µM

CC(C)n1c(=O)n(-c2ccccc2)n(C(C)(C)C)c1=O
inactive: [1] > 100 µM | [2] > 100 µM | [3] > 100 µM | [4] > 100 µM | [5] > 100 µM | [6] > 100 µM | [7] > 100 µM | [20] > 100 µM | [8] > 100 µM | [9] > 100 µM | [10] > 100 µM | [11] > 100 µM | [18] > 100 µM | [12] 47.4 µM | [13] > 100 µM | [14] > 100 µM | [15] > 100 µM | [16] > 100 µM | [17] > 100 µM

COCOc1ccc(OC)cc1
inactive: [1] > 100 µM | [2] > 100 µM | [3] > 100 µM | [4] > 100 µM | [5] > 100 µM | [6] > 100 µM | [7] > 100 µM | [8] > 100 µM | [9] > 100 µM | [10] > 100 µM | [11] > 100 µM | [12] > 100 µM | [13] > 100 µM | [14] > 100 µM | [15] > 100 µM | [16] > 100 µM | [17] > 100 µM

Cn1c2ccccc2c2c3c(c4c5ccccc5n(C)c4c21)C(=O)c1ccccc1C3=O
inactive: [3] 79.6 µM | [4] 61.1 µM | [5] 16.6 µM | [6] 61.2 µM | [7] 56 µM | [20] 14.1 µM | [8] > 100 µM | [9] 86.9 µM | [10] 16.3 µM | [11] 17.9 µM | [18] 28.2 µM | [12] 21 µM | [13] 25.9 µM | [19] > 100 µM | [14] 35.3 µM | [15] 64.1 µM | [16] 22.8 µM | [17] 53.3 µM

COC(=O)/C(C#N)=C(\N)c1c(C)c2ccccc2oc1=N
inactive: [1] > 100 µM | [2] > 100 µM | [3] > 100 µM | [5] > 100 µM | [6] > 100 µM | [7] > 100 µM | [20] > 100 µM | [8] > 100 µM | [9] > 100 µM | [10] > 100 µM | [11] > 100 µM | [12] > 100 µM | [13] > 100 µM | [19] > 100 µM | [14] > 100 µM | [15] > 100 µM | [16] > 100 µM | [17] > 100 µM

Reference: ChEMBL document CHEMBL1201862, “PubChem BioAssay data set” (2004)
